{
  "source": "patent US20230414715A1",
  "about": "“TRAIL COMPOUNDS FOR REDUCING CANCER TREAMENT SIDE EFFECTS” (BROWN UNIVERSITY, priority 2022, published 2023)",
  "key": {"C57B1/6 mice": {"tested_on": "C57B1/6 mice", "experiment": "Radiation pneumonitis after whole-thorax x-ray irradiation, H&E of lung, wild-type mice", "format": "in vivo, mouse", "method": "(§1) However, before embarking on the planned experiment, we decided to perform a preliminary, short-term treatment feasibility experiment to ensure some mouse survival after 20 Gy of thoracic irradiation (FIG. 1B). The preliminary experiment was performed with WT and DR5-null mice that were irradiated with 20 Gy, and this was followed by either weekly doses of TIC10/ONC201 (100 mg/kg for total of two doses) or twice a week doses of TLY012 (10 mg/kg for total of four doses) for 2 weeks.\n(§2) Animal studies were carried out at Brown University facilities with approval from Brown University IACUC. C57B1/6 mice (Taconic), mice with bi-allelic loss of TRAIL Death Receptor-(DR5-/-) in a C57B1/6 background, and mice with bi-allelic loss of TRAIL (TRAIL -/-) in a C57B1/6 background were given a single whole-thorax x-ray (Philips RT250) irradiation dose of 20 Gy with shielding of other organs. 8-15-week-old male and female mice of each genotype were used. […] Treatment was continued for two weeks, where TLY012 was administered twice a week and ONC201 was administered once a week. For each genetic background, two mice received a control PO, two mice received TLY012 IP, and two mice received ONC201 PO. Mice were weighed twice a week, and 13 days post-irradiation all mice were euthanized. Organs were harvested from the mice and 600 μL of blood was collected via cardiac puncture for serum cytokine analysis. Organs were preserved in 10% formalin then embedded in paraffin and sectioned at a distance of 5 μm. […] TRAIL-/- female mice were also subjected to a survival study with a single whole-thorax radiation doses of 15 Gy or 18 Gy treated with the same regimen of TLY012 or control (n=2/radiation dose/treatment) (FIG. 3B). In order to determine the lethal dose of radiation for C57B1/6 mice, female C57B1/6 mice were treated with a single dose of whole-thorax irradiation of 25 Gy in a survival study where they were treated with either TLY012 or remained control (n=6/treatment) (FIG. 3C)."}, "DR5-/- mice": {"tested_on": "DR5-/- mice", "experiment": "Radiation pneumonitis after whole-thorax x-ray irradiation, H&E of lung, DR5-null mice", "format": "in vivo, mouse", "settings": "20 Gy", "method": "as §1\nAnimal studies were carried out at Brown University facilities with approval from Brown University IACUC. C57B1/6 mice (Taconic), mice with bi-allelic loss of TRAIL Death Receptor-(DR5-/-) in a C57B1/6 background, and mice with bi-allelic loss of TRAIL (TRAIL -/-) in a C57B1/6 background were given a single whole-thorax x-ray (Philips RT250) irradiation dose of 20 Gy with shielding of other organs. 8-15-week-old male and female mice of each genotype were used. […] Treatment was continued for two weeks, where TLY012 was administered twice a week and ONC201 was administered once a week. For each genetic background, two mice received a control PO, two mice received TLY012 IP, and two mice received ONC201 PO. Mice were weighed twice a week, and 13 days post-irradiation all mice were euthanized. Organs were harvested from the mice and 600 μL of blood was collected via cardiac puncture for serum cytokine analysis. […]"}, "serum cytokines": {"tested_on": "serum cytokines", "experiment": "Serum cytokine analysis (Luminex) of irradiated mice", "format": "in vivo, mouse", "settings": "treated versus control", "method": "as §2\nAll mouse serum samples were analyzed by a custom R&D systems Murine Premixed Multi- Analyte Kit (R&D Systems, Inc., Minneapolis, MN). The panel was run on a Luminex 200 Instrument (Luminex Corporation, Austin, TX) according to the manufacturer's instructions. Murine serum levels of Angiopoietin-2, BAFF/BLyS/TNFSF13B, CCL2/JE/MCP-1, CCL3/MIP-1 alpha, CCL4/MIP-1 beta, CCL5/RANTES, CCL7/MCP-3/MARC, CCL11/Eotaxin, CCL12/MCP-5, CCL20/MIP-3 alpha, CCL21/6Ckine, CCL22/MDC, Chitinase 3-like 1, CXCL1/GRO alpha/KC/CINC-1, CXCL10/IP-10/CRG-2, CXCL12/S DF- 1 alpha, Dkk-1, FGF basic/FGF2/bFGF, GDF-15, GM-CSF, Granzyme B, IFN-gamma, IGF-I/IGF-1, IL-1 alpha/IL-1F1, IL-1 beta/IL-1F2, IL-2, IL-3, IL-4, IL-6, IL-7, IL-10, IL-13, IL-16, IL-17/IL-17A, IL-27, IL-33 M-CSF, MMP-3, MMP-8, MMP-12, Prolactin, TWEAK/TNFSF12, VEGF, and VEGFR2/KDR/Flk-1 were measured. Analyte values were reported in picograms per milliliter (pg/mL). […] Latent TGF-β was activated in samples using 1 N HCl and samples were neutralized with 1.2 N NaOH/0.5 M HEPES. Samples were assayed immediately after neutralization."}, "[1]": {"tested_on": "e0771 orthotopic breast tumors in C57B1/6 mice", "experiment": "Orthotopic e0771 breast tumor model with 20 Gy whole-thorax irradiation", "protocol": "C57B1/6 female mice (Taconic) were injected with 100,000 cells of murine breast cancer (e0771) in the right second mammary fat pad on day 0 of the experiment. […] Each group (n=3) also received a single whole-thorax x-ray irradiation dose of 20 Gy with shielding of other organs. One group (n=3) received no treatment and no radiation. The long axis and short axis of the tumors were measured using calipers and recorded twice a week. On day 18 all mice were euthanized at a humane endpoint, which was defined by 20% weight loss and/or a tumor volume of 2000 mm^3 (˜10% of body weight). Organs and tumors were harvested from the mice and 600 μL of blood was collected via cardiac puncture for serum cytokine analysis. Once tumors were extracted, they were weighed and measured to determine final volume and weight. Pulse oximeter readings were taken initially before radiation treatment and before sacrifice 9 days post-radiation (MouseSTAT Jr. Pulse Oximeter, Kent Scientific). When mice were under anesthesia the sensor of the MouseSTAT Jr. was placed on the hind right paw for 30 seconds. The highest and lowest values shown by the pulse oximeter during this time were recorded and then averaged together. The mean of all the averages per treatment group was then calculated."}},
  "note": "Entries after “also recorded” stand apart in the source; their conditions may differ.",
  "data": [
    {"substance": "TLY012: N-terminal PEGylated recombinant human TRAIL; PEGylated trimeric TRAIL formulation", "values": [
      {"measurement": "protection from pneumonitis", "setting": "C57B1/6 mice; WT mice, 20 Gy thoracic irradiation, preliminary experiment, 2 weeks treatment, versus irradiated control, FIG. 1C", "result": "qualitative evidence of protection from pneumonitis"},
      {"measurement": "rescue from radiation-induced pneumonitis", "setting": "C57B1/6 mice; irradiated C57B1/6 mice, FIG. 2", "result": "could rescue mice from radiation-induced pneumonitis"},
      {"measurement": "rescue from radiation pneumonitis", "setting": "DR5-/- mice; DR5-/- mice, FIG. 2A, B", "result": "did not observe rescue"},
      {"measurement": "protection from pneumonitis", "setting": "DR5-/- mice; DR5-null mice, preliminary experiment, 2 weeks treatment, FIG. 1C", "result": "lack of protection"},
      {"measurement": "CCL3/MIP-lalpha serum level", "setting": "serum cytokines", "result": "increased"},
      {"measurement": "CXCL1 serum level", "setting": "serum cytokines", "result": "increased"},
      {"measurement": "FGF basic serum level", "setting": "serum cytokines", "result": "increase"},
      {"measurement": "GDF-15 serum level", "setting": "serum cytokines", "result": "increased"},
      {"measurement": "IL6 serum level", "setting": "serum cytokines", "result": "increased"},
      {"measurement": "MMP-8 serum level", "setting": "serum cytokines", "result": "increased"},
      {"measurement": "effect on anti-tumor efficacy of radiation (tumor weight and volume)", "setting": "[1]; 20 Gy on day 9, treatment days 9, 12, 16, sacrifice day 18, FIG. 6B, C", "result": "no evidence that ONC201, TLY012 or their combination reduced efficacy of treatment"},
      {"measurement": "alveolar-wall thickness (H&E)", "setting": "[1]; 9 days post irradiation", "result": "reduction"},
      {"measurement": "lung inflammation (H&E)", "setting": "[1]; 9 days post irradiation", "result": "decreased inflammation"},
      {"measurement": "oxygen saturation (pulse oximetry)", "setting": "[1]; 9 days post-radiation, versus irradiated mice without further treatment, FIG. 6D", "result": "more conserved; also recorded: partially rescued"},
      {"measurement": "CCL22/MDC levels", "setting": "[1]; irradiated tumor-bearing mice, versus irradiated control, FIG. 6E", "result": "significant decrease; also recorded: reduction; also recorded: Reduced"},
      {"measurement": "rescue from radiation induced pneumonitis", "setting": "[1]; tumor-bearing mice, 20 Gy", "result": "more potent by TLY012 than with ONC201"}
    ]}
  ]
}
